System: 857933-349-R-J2-PDC complex spheroid viability
Assay: Anticancer human tumor 857933-349-R-J2-PDC patient-derived colon adenocarcinoma cell line growth inhibition [POLQ]
Conditions: for IC50: curve of first compound; for viability, T/C: stronger effect = lower value
Summary of the method: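 Complex spheroid viability model combining PDC tumour cells with endothelial (HUVEC) and MSC stromal cells. Novobiocin, ART-558 or RP6685 were tested singly and in combination with standard and investigational anticancer drugs. Each was titrated in half-log steps from near clinical Cmax, or from 10 microM where Cmax was unknown.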
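Further: spheroids exposed to compounds for seven days before readout.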

## C=CCn1c(=O)c2cnc(Nc3ccc(N4CCN(C)CC4)cc3)nc2n1-c1cccc(C(C)(C)O)n1 + Cc1cccc(N(C)C(=O)C2C(O)CCN2c2nc(C)cc(C(F)(F)F)c2C#N)c1
Second compound 0.0316 µM
  IC50: > 1000 nM
Second compound 0.1 µM
  IC50: > 1000 nM
Second compound 0.316 µM
  IC50: > 1000 nM
Second compound 1 µM
  IC50: > 1000 nM
Second compound 3.16 µM
  IC50: > 1000 nM
Second compound 10 µM
  IC50: > 1000 nM
Second compound 0.0316 µM, first compound 0.00316 µM
  viability, T/C: 103%
Second compound 0.0316 µM, first compound 0.01 µM
  viability, T/C: 98.2%
Second compound 0.0316 µM, first compound 0.0316 µM
  viability, T/C: 96.8%
Second compound 0.0316 µM, first compound 0.1 µM
  viability, T/C: 112%
Second compound 0.0316 µM, first compound 0.316 µM
  viability, T/C: 96.2%
Second compound 0.0316 µM, first compound 1 µM
  viability, T/C: 79.3%
Second compound 0.1 µM, first compound 0.00316 µM
  viability, T/C: 99.4%
Second compound 0.1 µM, first compound 0.01 µM
  viability, T/C: 98.9%
Second compound 0.1 µM, first compound 0.0316 µM
  viability, T/C: 88.2%
Second compound 0.1 µM, first compound 0.1 µM
  viability, T/C: 84%
Second compound 0.1 µM, first compound 0.316 µM
  viability, T/C: 99%
Second compound 0.1 µM, first compound 1 µM
  viability, T/C: 77.7%
Second compound 0.316 µM, first compound 0.00316 µM
  viability, T/C: 97.8%
Second compound 0.316 µM, first compound 0.01 µM
  viability, T/C: 97.2%
Second compound 0.316 µM, first compound 0.0316 µM
  viability, T/C: 114%
Second compound 0.316 µM, first compound 0.1 µM
  viability, T/C: 106%
Second compound 0.316 µM, first compound 0.316 µM
  viability, T/C: 93%
Second compound 0.316 µM, first compound 1 µM
  viability, T/C: 68.2%
Second compound 1 µM, first compound 0.00316 µM
  viability, T/C: 92.8%
Second compound 1 µM, first compound 0.01 µM
  viability, T/C: 91.4%
Second compound 1 µM, first compound 0.0316 µM
  viability, T/C: 108%
Second compound 1 µM, first compound 0.1 µM
  viability, T/C: 103%
Second compound 1 µM, first compound 0.316 µM
  viability, T/C: 117%
Second compound 1 µM, first compound 1 µM
  viability, T/C: 80.9%
Second compound 3.16 µM, first compound 0.00316 µM
  viability, T/C: 112%
Second compound 3.16 µM, first compound 0.01 µM
  viability, T/C: 88.9%
Second compound 3.16 µM, first compound 0.0316 µM
  viability, T/C: 111%
Second compound 3.16 µM, first compound 0.1 µM
  viability, T/C: 89%
Second compound 3.16 µM, first compound 0.316 µM
  viability, T/C: 94.1%
Second compound 3.16 µM, first compound 1 µM
  viability, T/C: 77.8%
Second compound 10 µM, first compound 0.00316 µM
  viability, T/C: 82.1%
Second compound 10 µM, first compound 0.01 µM
  viability, T/C: 111%
Second compound 10 µM, first compound 0.0316 µM
  viability, T/C: 104%
Second compound 10 µM, first compound 0.1 µM
  viability, T/C: 87%
Second compound 10 µM, first compound 0.316 µM
  viability, T/C: 101%
Second compound 10 µM, first compound 1 µM
  viability, T/C: 71%

— PubChem BioAssay AID1963836 (Molecular Pharmacology Branch, DTP, NCI, 2024)
